Data set [1] deals with NSCLC U-1810 cells. Details: method as in PMID 25319389. Particulars: 72 h; cited from earlier work.
Data set [2] has as its system WI-38 diploid lung fibroblasts. Further details: method as in PMID 25319389. Particulars: 72 h; cited from earlier work.
The subject of data set [3] is NSCLC U-1810 cells. The data set can be described thus: MTT cytotoxicity assay in NSCLC U-1810 cells. The data set is classed as cell-based, human. Particulars: for pIC50: U-1810, 72 h, MTT, 72 h post addition, estimated from cell viability curve. The protocol:
(§1) Cytotoxicity structure-activity relationship analyses of compounds in NSCLC tumor cells and fibroblasts. Stock solutions (10 mg/mL) of the compounds to be tested were made in DMSO and further diluted with cell culture media prior to structure-activity relationship (SAR) screening as earlier described. To assess anti-tumor activity, the large cell lung carcinoma cell line NSCLC U-1810 (kind gift from Uppsala University) and diploid lung fibroblasts WI-38 [30] were used. U-1810 cells were propagated in RPMI-1640 medium (Sigma-Aldrich, St. Louis, […], USA) supplemented with FBS (10% HyClone) and L-glutamine (2 mmol/L, Invitrogen) while WI-38 fibroblasts were cultured in Eagle’s Minimum Essential Medium (Sigma-Aldrich) with 15% FBS and L-glutamine. For SAR assessment the cytotoxic assay 3-(4,5-dimethylthiazol-2-yl)-2,5 diphenyltetrazolium bromide (MTT) was applied. Profiling of U-1810 cells was carried out at 80% confluency (obtained by seeding 5000 cells/well in a 96-well plate for 24 h prior to treatment) and of WI-38 at 100% confluency (obtained by seeding 18,000 cells/well in a 96-well plate for 24 h prior to compound addition), the later to mimic the behavior of fibroblasts in the human body where they are non-dividing. For SAR evaluation, different concentrations of the compounds were added to fresh media while untreated cells were treated with DMSO corresponding to the amount applied when testing the highest concentration of the different compounds. The cytotoxicity of the compounds was assessed at 72 h post addition to cells by adding MTT solution (0.5 mg/mL, Sigma-Aldrich, 4 h at 37 °C) and dissolving the resulting formazan crystals in an SDS-containing solution (10% SDS and 0.01 mol/L HCl). Absorbance was quantified at 595 nm and the compound-induced cytotoxicity was calculated relative to that observed in DMSO-treated cells. The IC50 values were deduced from survival plots drawn in Graph Pad PRISM software vers.6 and for some of the compounds extrapolated as indicated in footnotes to Table 1.

Data set [4] relates to WI-38 diploid lung fibroblasts. Nature of the data set: MTT cytotoxicity assay in diploid lung fibroblasts WI-38. The data set is classed as cell-based, human. Particulars: Homo sapiens, WI-38, 72 h, MTT, 72 h post addition, confluent cells, estimated from cell viability curve. The method, then: as §1
Assay in data set [5]: as above
The data set is classed as cell-based, human. Particulars: human, WI-38 diploid lung fibroblasts, 72 h, read-out: cell viability; for viability at 72 h, 188 µM: WI-38, at 188 µM. The method, then: as §1

Setting [6] is: calculated at IC50 (WI-38 IC50 / U-1810 IC50).

SMILES strings stand for the structures. pIC50: −log10 of the molar value. Read-outs that look alike come from different tables or passages of the source.

With `C#C[C@H](O)/C=C/CCCCCCCCC(C)CCCCCCCC` (stereo partly drawn) [Compound 23, (3R)-14-Methyldocos-(4E)-en-1-yn-3-ol], the pIC50 in the data set on NSCLC U-1810 cells [1] is 6.10; in data set [2] it was 5.01. Also, in the data set on NSCLC U-1810 cells [3], the “cytotoxic activity in NSCLC U-1810 cells (in words)” value is recorded as “equally active”. In addition, the “Selectivity NSCLC cells (U-1810) vs. diploid fibroblasts (WI-38)” value (shortened to “Selectivity NSCLC cells”) in the data set on NSCLC U-1810 cells [3] (setting [6]) is 12.1.

As to `C#C[C@H](O)/C=C/CCCCCCCCCCCCCCC` [scal-18, (3R)-Icos-(4E)-en-1-yn-3-ol], the pIC50 in the data set on NSCLC U-1810 cells [1] was 6.30; in data set [2], 5.14. The “cytotoxic activity in NSCLC U-1810 cells (in words)” value with NSCLC U-1810 cells [3] is reported as “equally active”. Besides, the “Selectivity NSCLC cells” value with NSCLC U-1810 cells [3] (setting [6]) was 14.6.

As for `C#C[C@@H](O)CCCCCCCCCCCCCCC` [Compound S-32, (S)-octadec-1-yn-3-ol], the pIC50 was 3.85 with NSCLC U-1810 cells [3] (Homo sapiens) and below 3.73 in data set [4]. The viability at 72 h, 188 µM in data set [5] was around 80%.

Consider `C#C[C@H](CCCCCCCCCCCCCCC)OC(=O)[C@](OC)(c1ccccc1)C(F)(F)F` [S,R-34, (R)-((S)-octadec-1-yn-3-yl)-3,3,3-trifluoro-2-methoxy-2-phenylpropanoate], for which the pIC50 (in the data set with NSCLC U-1810 cells [3] (Homo sapiens); in data set [4]) was below 3.95 in each case. In addition, the viability at 113 µM with NSCLC U-1810 cells [3] (Homo sapiens, U-1810, at 113 µM, 72 h, read-out: cell viability) was around 96%. The viability at 72 h, 113 µM in data set [5] (WI-38, at 113 µM) was around 100%.

Consider `C#CC(Cl)CCCCCCCCCCCCCCC` (racemic) [rac-36, 3-chlorooctadec-1-yne], for which the “tumor selective cytotoxicity NSCLC vs WI-38 (in words)” value in the data set on NSCLC U-1810 cells [3] is recorded as “did not display any specific cytotoxicity”. In addition, the pIC50 is 3.85 in the data set on NSCLC U-1810 cells [3] (Homo sapiens) and below 3.76 in data set [4]. For the same molecule, the “Selectivity NSCLC cells” value in the data set with NSCLC U-1810 cells [3] (calculated at IC50 of U-1810 and the highest dose applied in WI-38 (IC50 not reached)) is >1.3 ^u. Further, the viability at 72 h, 175 µM in data set [5] (WI-38, at 175 µM) is around 75%.

Regarding `C#C[C@H](O)CCCCCCCCCCCCCCC` [Compound R-32, (R)-octadec-1-yn-3-ol], the pIC50 with NSCLC U-1810 cells [3] (Homo sapiens) was 5.85; in data set [4] it was below 3.73. For the same molecule, the viability at 72 h, 188 µM in data set [5] is around 60%.

Values taken from PMC9032987, “Cytotoxic Alkylynols of the Sponge Cribrochalina vasculum: Structure, Synthetic Analogs and SAR Studies” (Marine Drugs, 2022).
